Source: PMC2765504 (Journal of natural products, 2009)

Target: T1, EncN (Streptomyces maritimus, UniProt Q9KHK1)
T1 sequence (Q9KHK1 1-522): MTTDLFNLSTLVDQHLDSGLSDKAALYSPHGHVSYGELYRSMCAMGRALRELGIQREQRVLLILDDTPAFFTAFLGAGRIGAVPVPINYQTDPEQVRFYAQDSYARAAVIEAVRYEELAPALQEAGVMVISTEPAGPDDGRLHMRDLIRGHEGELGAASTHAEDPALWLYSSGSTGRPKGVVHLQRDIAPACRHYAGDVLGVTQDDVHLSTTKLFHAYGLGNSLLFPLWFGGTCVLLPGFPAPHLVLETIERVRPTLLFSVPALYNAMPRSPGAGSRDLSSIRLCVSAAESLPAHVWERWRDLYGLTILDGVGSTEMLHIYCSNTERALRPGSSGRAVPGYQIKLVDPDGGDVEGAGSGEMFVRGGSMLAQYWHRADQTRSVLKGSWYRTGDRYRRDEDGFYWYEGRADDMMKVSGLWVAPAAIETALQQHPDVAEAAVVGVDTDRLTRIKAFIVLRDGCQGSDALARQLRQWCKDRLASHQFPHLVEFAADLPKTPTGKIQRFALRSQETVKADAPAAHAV
T1 sequence (Q9KHK4 1-82 partner): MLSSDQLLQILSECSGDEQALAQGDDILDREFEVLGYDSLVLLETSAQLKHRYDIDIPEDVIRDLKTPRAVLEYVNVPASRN
Assay: FTMS of acyl loading on holo-EncC
Assay type: biochemical
Settings: ATP 10 mM, EncN 2 uM, holo-EncC 20 uM

| SMILES | FTMS of acyl loading on holo-EncC (benzoic acid 10 mM) | FTMS of acyl loading on holo-EncC (benzoic acid omitted) |
| --- | --- | --- |
| O=C(O)c1ccccc1 [benzoic acid] | Upon incubation with EncN, benzoate was transferred in typical nonribosomal peptide synthetase fashion |  |
| O=C(O)c1ccccc1O [salicylic acid] |  | in its absence, EncN preferentially activates and loads salicylate |
